According to patent publication US7468391B2, “Methods for treating retinoid responsive disorders using selective inhibitors of CYP26A and CYP26B” (Allergan, Inc., priority 2003, dated 2008):

Tests used:
RAR α = target: T1, RAR α (Homo sapiens, UniProt P10276); assay: RAR α Kd; type: binding; details: last item of cell EC50/(EFFICACY)/Kd
T1 sequence (P10276 1-462): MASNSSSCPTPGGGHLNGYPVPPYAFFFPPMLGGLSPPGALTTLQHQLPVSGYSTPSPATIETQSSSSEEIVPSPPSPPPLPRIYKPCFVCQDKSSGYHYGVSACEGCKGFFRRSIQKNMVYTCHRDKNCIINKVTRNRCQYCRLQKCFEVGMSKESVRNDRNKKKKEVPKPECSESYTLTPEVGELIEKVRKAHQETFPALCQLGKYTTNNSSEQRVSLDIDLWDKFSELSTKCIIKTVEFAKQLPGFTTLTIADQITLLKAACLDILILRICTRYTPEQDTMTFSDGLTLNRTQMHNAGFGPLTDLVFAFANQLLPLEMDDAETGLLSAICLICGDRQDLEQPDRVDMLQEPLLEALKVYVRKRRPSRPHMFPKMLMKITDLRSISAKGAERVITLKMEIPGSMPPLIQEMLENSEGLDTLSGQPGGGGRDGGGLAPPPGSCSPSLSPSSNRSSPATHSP

RAR β [1] = target: T2, RAR β (Homo sapiens, UniProt P10826); assay: RAR β Kd; type: binding; details: last item of cell EC50/(EFFICACY)/Kd
T2 sequence (P10826 1-455): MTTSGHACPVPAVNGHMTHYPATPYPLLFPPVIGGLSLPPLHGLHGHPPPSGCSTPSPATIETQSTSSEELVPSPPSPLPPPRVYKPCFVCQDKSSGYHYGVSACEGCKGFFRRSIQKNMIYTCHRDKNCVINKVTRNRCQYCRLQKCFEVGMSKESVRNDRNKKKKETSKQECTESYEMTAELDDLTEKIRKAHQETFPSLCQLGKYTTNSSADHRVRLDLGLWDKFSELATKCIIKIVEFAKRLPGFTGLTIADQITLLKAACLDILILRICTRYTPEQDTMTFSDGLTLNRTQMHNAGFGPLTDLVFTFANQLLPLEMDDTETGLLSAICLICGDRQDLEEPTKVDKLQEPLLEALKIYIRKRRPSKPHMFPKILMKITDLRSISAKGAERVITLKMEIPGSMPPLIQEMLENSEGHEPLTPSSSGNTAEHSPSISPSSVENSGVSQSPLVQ

RAR γ = target: T3, RAR γ (Homo sapiens, UniProt P13631); assay: RAR γ Kd; type: binding; details: last item of cell EC50/(EFFICACY)/Kd
T3 sequence (P13631 1-454): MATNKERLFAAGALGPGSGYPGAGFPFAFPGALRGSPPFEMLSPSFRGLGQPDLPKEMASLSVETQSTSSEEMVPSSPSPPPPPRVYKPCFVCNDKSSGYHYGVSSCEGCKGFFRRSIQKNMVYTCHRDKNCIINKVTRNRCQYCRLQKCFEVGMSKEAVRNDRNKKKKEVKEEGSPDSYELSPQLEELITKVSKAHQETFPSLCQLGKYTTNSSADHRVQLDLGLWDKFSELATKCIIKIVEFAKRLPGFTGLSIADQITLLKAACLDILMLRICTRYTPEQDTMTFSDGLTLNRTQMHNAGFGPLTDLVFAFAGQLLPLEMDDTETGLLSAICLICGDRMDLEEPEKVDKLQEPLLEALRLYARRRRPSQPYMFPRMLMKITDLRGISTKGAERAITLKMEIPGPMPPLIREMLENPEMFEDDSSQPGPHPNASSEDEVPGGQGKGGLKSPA

RAR β [2] = target: T2, RAR β; assay: RAR β EC50/(efficacy); type: cell-based; details: value in brackets of cell EC50/(EFFICACY)/Kd
CYP26A (P450RAI-1) = target: T4, CYP26A (P450RAI-1) (Homo sapiens, UniProt O43174); assay: Cell-based inhibition of RA metabolism in CYP26A stably transfected HeLa cells; details: stably transfected HeLa cells, [3H]-RA, 3 hours at 37° C.; read-out: P450RAI-1 Whole cell IC50
T4 construct: expressed in transfected cells; host or cells: HeLa
T4 sequence (O43174 1-497): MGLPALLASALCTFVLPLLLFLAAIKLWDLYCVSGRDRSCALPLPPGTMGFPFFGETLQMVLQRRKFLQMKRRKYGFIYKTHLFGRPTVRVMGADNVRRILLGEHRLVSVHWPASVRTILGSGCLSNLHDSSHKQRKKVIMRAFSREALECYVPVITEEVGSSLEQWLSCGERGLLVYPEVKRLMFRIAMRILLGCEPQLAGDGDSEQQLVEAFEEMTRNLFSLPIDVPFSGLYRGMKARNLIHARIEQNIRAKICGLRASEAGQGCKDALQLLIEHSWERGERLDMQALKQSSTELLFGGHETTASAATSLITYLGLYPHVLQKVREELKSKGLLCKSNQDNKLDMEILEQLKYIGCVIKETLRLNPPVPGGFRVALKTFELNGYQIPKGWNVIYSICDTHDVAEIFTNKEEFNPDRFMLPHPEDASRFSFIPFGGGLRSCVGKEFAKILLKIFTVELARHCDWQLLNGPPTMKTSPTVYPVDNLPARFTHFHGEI
Description: (§1) In brief, CYP26A or CYP26B can be stably transfected into HeLa cells. Exponentially growing cells are harvested by incubating in trypsin. Cells are then washed and plated in a 48-well plate at 5×10^5 cells in 0.2 ml MEM medium containing 10% FBS and 0.05 μCi [^3H]-RA in the presence or absence of increasing concentrations of the test compounds. The compounds are diluted in 100% DMSO and then added in triplicate wells at either 10, 1 or 0.1 μM final concentration. As a positive control for RA metabolism inhibition, cells are also incubated with ketoconazole at 100, 10 and 1 μM. Cells are incubated for 3 hours at 37 degrees C. The retinoids are then extracted using the procedure of Bligh et al., Canadian Journal of Biochemistry 37: 911-917 (1959), modified by using methylenechloride instead of chloroform. This publication by Bligh et al., is specifically incorporated herein by reference. The water soluble radioactivity is quantified using a β scintillation counter, and IC50 values are determined.
(§2) CYP26A and CYP26B stably transfected HeLa cells were maintained in 100 mm tissue culture dishes in MEM medium containing 10% FBS and 100 μg/ml hygromycin.
(§3) Exponentially growing cells were harvested by incubating in trypsin. Cells were then washed with 1×PBS and plated in a 48-well plate at 5×10^5 cells in 0.2 ml MEM medium containing 10% FBS and 0.05 μCi [^3H]-RA in the presence or absence of increasing concentrations of the test compounds. The compounds were diluted in 100% DMSO and then added to triplicate wells at final concentrations of 10, 1 or 0.1 μM. As a positive control for RA metabolism inhibition, cells were also incubated with ketoconazole at 100, 10 and 1 μM. Cells were incubated for 3 hours at 37° C. The retinoids were then extracted using a modified Bligh and Dyer procedure (Bligh and Dyer, supra (1959)), in which methylene-chloride, as opposed to chloroform, was used, and the aqueous soluble radioactivity quantified using a β-scintillation counter. ID50 values represent the concentration of inhibitor required to inhibit RA metabolism by 50 percent and were derived manually from log-transformed data.

CYP26B (P450RAI-2) = target: T5, CYP26B (P450RAI-2) (Homo sapiens, UniProt Q9NR63); assay: Cell-based inhibition of RA metabolism in CYP26B stably transfected HeLa cells; details: stably transfected HeLa cells, [3H]-RA, 3 hours at 37° C.; read-out: P450RAI-2 Whole cell IC50
T5 construct: expressed in transfected cells; host or cells: HeLa
T5 sequence (Q9NR63 1-512): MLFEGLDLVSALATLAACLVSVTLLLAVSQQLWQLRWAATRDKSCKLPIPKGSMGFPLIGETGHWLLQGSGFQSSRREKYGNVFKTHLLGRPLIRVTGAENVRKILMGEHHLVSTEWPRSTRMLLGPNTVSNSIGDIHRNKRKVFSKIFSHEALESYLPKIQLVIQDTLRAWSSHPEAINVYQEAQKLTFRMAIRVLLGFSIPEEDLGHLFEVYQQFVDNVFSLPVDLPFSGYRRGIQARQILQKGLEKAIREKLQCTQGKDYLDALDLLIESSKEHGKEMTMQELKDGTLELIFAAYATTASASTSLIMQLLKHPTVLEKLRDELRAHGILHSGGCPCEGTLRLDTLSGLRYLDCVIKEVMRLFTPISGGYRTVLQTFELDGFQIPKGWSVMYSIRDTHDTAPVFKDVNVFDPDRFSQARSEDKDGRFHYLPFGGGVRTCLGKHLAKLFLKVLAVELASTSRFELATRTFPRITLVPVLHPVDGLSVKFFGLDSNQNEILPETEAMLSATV
Description: as §1, §2, §3

| Structure (SMILES) | Kd (RAR α) | Kd (RAR β [1]) | Kd (RAR γ) | RAR β (EFFICACY) (RAR β [2]) | IC50 (CYP26A (P450RAI-1)) | IC50 (CYP26B (P450RAI-2)) |
| --- | --- | --- | --- | --- | --- | --- |
| CN(Cc1cccc(C#Cc2ccc(/C=C/C(=O)O)cc2)c1)C1CC1 [Compound 31, (E)-3-(4-{3-[(Cyclopropyl-methyl-amino)-methyl]-phenylethynyl}-phenyl)-acrylic acid] | > 10 µM | > 10 µM | > 10 µM | 25 | > 10 µM | 0.6 µM |
| COc1cc(C#Cc2ccc(CC(=O)O)c(F)c2)cc2c1C(N(C)C1CC1)CCC2(C)C (stereo not shown) [Compound 26, {4-[5-(Cyclopropyl-methyl-amino)-4-methoxy-8,8-dimethyl-5,6,7,8-tetrahydro-naphthalen-2-ylethynyl]-2-fluoro-phenyl}-acetic acid] | > 10 µM | > 10 µM | 1.12 µM | 25 | 0.018 µM | 5 µM |
| CCOC(=O)C1=C(C)CC(C)(C)c2cc(C#Cc3ccc(CC(=O)O)cc3)ccc21 [Compound 58, 6-(4-Carboxymethyl-phenylethynyl)-2,4,4-trimethyl-3,4-dihydro-naphthalene-1-carboxylic acid ethyl ester] | > 10 µM | 4.61 µM | > 10 µM | 25 | 3.5 µM | > 10 µM |
| CN(C1CC1)C1CCC(C)(C)c2cc(C#Cc3ccc(C(C)(C)C(=O)O)cc3)ccc21 (stereo not shown) [Compound 52, 2-{4-[5-(Cyclopropyl-methyl-amino)-8,8-dimethyl-5,6,7,8-tetrahydro-naphthalen-2-ylethynyl]-phenyl}-2-methyl-propionic acid] | > 10 µM | > 10 µM | > 10 µM | < 5 | 0.4 µM | > 10 µM |
| Cc1ccc(CN(C)C2CC2)cc1C#Cc1ccc(/C=C/C(=O)O)cc1 [Compound 34, (E)-3-(4-{5-[(Cyclopropyl-methyl-amino)-methyl]-2-methyl-phenylethynyl}-phenyl)-acrylic acid] | 5.65 µM | 3.49 µM | 8.53 µM | 20 | > 10 µM | 0.12 µM |
| CC(C(=O)O)c1ccc(C#Cc2cc(CN(C)C3CC3)c3c(c2)C(C)(C)CC(C)(C)O3)cc1 (stereo not shown) [Compound 8, 2-(4-{8-[(Cyclopropyl-methyl-amino)-methyl]-2,2,4,4-tetramethyl-chroman-6-ylethynyl}-phenyl)-propionic acid] | 0.957 µM | 4.8 µM | > 10 µM | 15 | 0.05 µM | > 10 µM |
| CCOC(=O)C1=CCC(C)(C)c2cc(C#Cc3ccc(CC(=O)O)c(F)c3)c(C)cc21 [Compound 56, 6-(4-Carboxymethyl-3-fluoro-phenylethynyl)-4,4,7-trimethyl-3,4-dihydro-naphthalene-1-carboxylic acid ethyl ester] | > 10 µM | > 10 µM | > 10 µM | 30 | 0.5 µM | – |
| CC(C)Oc1cc(C#Cc2ccc(CC(=O)O)cc2)cc2c1OC(C)(C)CC2(C)C [Compound 13, [4-(8-Isopropoxy-2,2,4,4-tetramethyl-chroman-6-ylethynyl)-phenyl]-acetic acid] | 0.397 µM | > 10 µM | > 10 µM | – | 0.06 µM | 8 µM |
| CC(C(=O)O)c1ccc(C#Cc2cc(O)c3c(c2)C(C)(C)CC(C)(C)O3)cc1 (stereo not shown) [Compound 11, 2-[4-(8-Hydroxy-2,2,4,4-tetramethyl-chroman-6-ylethynyl)-phenyl]-propionic acid] | > 10 µM | > 10 µM | > 10 µM | – | 0.07 µM | 3 µM |
| COc1cc(C#Cc2ccc(CC(=O)O)cc2)cc2c1C(N(C)C1CC1)CCC2(C)C (stereo not shown) [Compound 25, {4-[5-(Cyclopropyl-methyl-amino)-4-methoxy-8,8-dimethyl-5,6,7,8-tetrahydro-naphthalen-2-ylethynyl]-phenyl}-acetic acid] | > 10 µM | > 10 µM | 0.317 µM | – | 0.1 µM | > 10 µM |
| COc1cc(C#Cc2ccc(C(C)(C)C(=O)O)cc2)cc2c1C(N(C)C1CC1)CCC2(C)C (stereo not shown) [Compound 28, 2-{4-[5-(Cyclopropyl-methyl-amino)-4-methoxy-8,8-dimethyl-5,6,7,8-tetrahydro-naphthalen-2-ylethynyl]-phenyl}-2-methyl-propionic acid] | > 10 µM | > 10 µM | 4.2 µM | – | 0.25 µM | > 10 µM |
